Test results: PMC8389922, “First-in-Class Cyclic Temporin L Analogue: Design, Synthesis, and Antimicrobial Assessment” (Journal of Medicinal Chemistry, 2021)
Converted amounts (≈) assume the structure as drawn. Bridge positions count the residues as written; N and C are the ends. Square brackets hold non-standard residues; d marks the D form. Peptide text beside a SMILES is read from it.

Tests used:
FtsZ protein = details: E. coli divisome; cited from earlier work
Description: Temporins are AMPs and belong to the group of host defense peptides (HDP), originally isolated from the amphibian skin secretions of the […] Rana temporaria.[29] Their sequences are composed of 10–14 amino acids, amidated at the C-terminus. In hydrophobic environments, temporins fold into an amphipathic α-helix that, along with their cationic nature at physiological pH (from +2 to +3), is accountable for their biological behavior.

P. aeruginosa ATCC 27853 = assay type: cell-based, Pseudomonas aeruginosa
Procedure: (§1) The antimicrobial activity of peptides 9–26 was assessed against a range of reference bacterial strains such as S. aureus ATCC 25923, Staphylococcus epidermidis ATCC 12228, Bacillus megaterium Bm11, E. coli ATCC 25922, P. aeruginosa ATCC 27853, and A. baumannii ATCC 19606 by the broth microdilution assay to determine the minimal growth inhibitory concentration (MIC, Table 1).[59] First, we evaluated the effects produced by the lactam bridge between Lys and Glu residues placed at different positions along the peptide sequence of reference 9. […] When the i,i+7 cyclization strategy was applied (20–23), a dramatic decrease of bacterial inhibition activity was observed. Specifically, the peptides 20, 22, and 23 only affected the microbial growth of the Gram-positive B. megaterium Bm11, at 12.5 μM. […] Peptide 25, which differs from 9 by the presence of an olefin bridge rather than lactam one, dramatically lost the activity (MIC > 100 μM) vs both Gram-positive and Gram-negative strains.
(§2) The determination of MICs was conducted as previously reported.[61] Aliquots of 50 μL of bacterial culture appropriately diluted were added to each well of a 96-well plate to reach a final cell density of 1 × 10^6 CFU/mL and a final peptide concentration ranging from 100 to 0.78 μM (final volume 100 μL).

S. aureus ATCC 25923 = assay type: cell-based, Staphylococcus aureus
Procedure: as §1, §2

circular dichroism = details: water; pH ns; 25 °C; 50 uM
in vitro = details: male, human, 90% fresh human serum
Procedure: (§5) Peptides were incubated with 90% fresh human serum at 37 ± 1 °C within 12 h.[69] The percentage of intact peptide was monitored by calculating the peak area of the chromatogram from RP-HPLC analysis.
(§6) The peptide was incubated in a 1.5 mL eppendorf tube with human serum at a final concentration of 0.2 mM, and the mixture was incubated at 37 ± 1 °C for different periods (0.25, 0.75, 1.5, 2, 3, 4, 6, 7, 8, and 12 h). After the incubation period, an aliquot of reaction solution was taken and added MeCN (double volume respect to the aliquot) for the precipitation of serum proteins present in human serum. The produced cloudy solution was cooled (4 °C) for 15 min and then centrifuged at 13 000 rpm for 10 min to remove the serum protein as pellet. Then, the supernatant was analyzed by RP-UHPLC using a linear elution gradient from 10 to 90% MeCN (0.1% TFA) in water (0.1% TFA) over 20 min. A flow rate of 1 mL/min was employed, and the absorbance of the eluting peaks was detected at 220 nm. The proteolytic stability assay was repeated in triplicate.

E. coli ATCC 25922 = assay type: cell-based, Escherichia coli
Procedure: as §1, §2

B. megaterium Bm11 = assay type: cell-based, Bacillus megaterium
Procedure: as §1, §2

[1] = test system: S. epidermidis ATCC 12228; assay type: cell-based, Staphylococcus epidermidis
Procedure: as §1, §2

[2] = 90% fresh human serum (male AB plasma), 37 ± 1 °C, peptide 0.2 mM, MeCN precipitation, RP-UHPLC peak area at 220 nm, triplicate
Procedure: as §5, §6

[3] = test system: preformed biofilm of S. aureus ATCC 25923; details: ATCC 25923, 20 h
Procedure: (§3) Biofilm viability was determined as indicated in the Materials and General Procedures section and expressed as a percentage compared to that of untreated samples (100%). Values are the mean of at least three replicates ± SEM. Data are considered to be statistically significant as follows: *p < 0.05; ***p < 0.001; ****p < 0.0001. Biofilm eradication concentration 90, BEC90, was defined as the concentration able to reduce at least 90% of biofilm cells. TEXT PRINTED IN THE PICTURE: 9: S. aureus ATCC 25923: BEC90 = 25 μM; A. baumannii ATCC 19606: BEC90 > 100 μM | 12: S. aureus ATCC 25923: BEC90 = 12.5 μM; A. baumannii ATCC 19606: BEC90 = 25 μM
(§4) Preformed biofilms of S. aureus ATCC 25923 and A. baumannii ATCC 19606 were obtained as previously reported.[77] Microbial cultures were grown in Luria-Bertani broth (LB) at 37 °C to an optical density (OD) of 0.8 (λ = 590 nm) and then diluted in LB to a cell density of 1 × 10^6 colony-forming units (CFUs)/mL. Aliquots of 100 μL were dispensed into the wells of a 96-well plate, which was incubated for 20 h at 37 °C to allow biofilm formation. The medium containing planktonic cells was then aspirated from the wells and washed twice with 150 μL of phosphate-buffered saline (PBS) to remove any nonadherent cells. […] After treatment, each well was rinsed twice with PBS, as previously described. Then, 150 μL of MTT solution (0.5 mg/mL) were added to each well to evaluate biofilm cell viability. The plates were incubated at 37 °C for 4 h in the dark, and the reaction was stopped by adding sodium dodecyl sulfate (SDS) (at a final concentration of 5% v/v). The absorbance of each well was recorded at 570 nm using a microplate reader (Infinite M200; Tecan, Salzburg, Austria), and the percentage of biofilm cells viability was calculated with respect to the untreated samples (100%).

[4] = test system: preformed biofilm of A. baumannii ATCC 19606; details: ATCC 19606, 20 h
Procedure: as §3, §4

[5] = test system: S. aureus ATCC 43300, a methicillin-resistant strain (MRSA); assay type: cell-based, Staphylococcus aureus
Procedure: Thus, 12 was further tested against S. aureus ATCC 43300, a methicillin-resistant strain (MRSA), and compared with the linear precursor 9. […] No growth was observed after 24 h. Peptide 9 was bactericidal as well, by killing MRSA within 10 min, but at a higher concentration (25 μM).
The bacterial strains used in the antimicrobial assays were the Gram-negative E. coli ATCC 25922, P. aeruginosa ATCC 27853, A. baumannii ATCC 19606, the Gram-positive S. aureus ATCC 25923, S. epidermidis ATCC 12228, and B. megaterium Bm11. Methicillin-resistant S. aureus (MRSA) ATCC 43300 was obtained from Culture Collection Center of School of Basic Medical Sciences of Lanzhou University (China).
as §2

A. baumannii ATCC 19606 = assay type: cell-based, Acinetobacter baumannii
Procedure: as §1, §2

[6] = test system: HaCaT cells (human immortalized keratinocytes); experiment: Cytotoxicity, MTT assay; assay type: cell-based; details: vs untreated control
Procedure: In particular, the cytotoxicity was evaluated by the 3-(4,5-dimethylthiazol-2-yl)-2,5-diphenyltetrazolium bromide (MTT) assay and is expressed as the percentage of viability of peptide-treated cells compared to that of untreated control cells. As expected, after 2 and 24 h treatments, the cell viability decreased in a concentration-dependent manner for all peptides (Figure 2).
Figure 2 Viability of peptide-treated HaCaT cells evaluated by MTT assay at 2 h (a) and 24 h (b). All data are expressed as a percentage with respect to the untreated control cells and are the mean of three independent experiments ± standard error of the mean (SEM).
The human immortalized keratinocytes HaCaT cells (AddexBio, San Diego, CA) were cultured in Dulbecco’s modified Eagle’s medium containing 4 mM glutamine (DMEMg), supplemented with 10% heat-inactivated fetal bovine serum (FBS) and 0.1 mg/mL of penicillin and streptomycin, at 37 °C and 5% CO2, in 25 or 75 cm^2 flasks.
The quantification of cell viability was performed by the in vitro MTT [3-(4,5-dimethylthiazol-2-yl)-2,5-diphenyltetrazolium bromide] assay, as previously reported,[77] measuring the conversion of the soluble yellow dye MTT to insoluble purple formazan by mitochondrial dehydrogenases. More precisely, 4 × 10^4 HaCaT cells, suspended in DMEMg supplemented with 2% FBS without antibiotics, were plated in each well of the 96-well plate. After overnight incubation at 37 °C and 5% CO2, the medium of each well was replaced by DMEMg containing the peptide at different concentrations, as indicated. Controls were HaCaT cells not treated with the peptide. After 2 and 24 h of incubation at 37 °C and 5% CO2, the medium was discarded; 0.5 mg/mL of MTT in Hank’s buffer was added to each well, and the plate was incubated for further 4 h. Acidified isopropanol was then added to dissolve formazan crystals, and the absorbance of each well at 570 nm was measured using a microplate reader (Infinite M200; Tecan, Salzburg, Austria). The purple color intensity is directly proportional to the number of viable cells, which was expressed as a percentage compared to that of untreated control cells (100%).

[7] = CD spectroscopy, secondary structure content (DichroWeb); assay type: physicochemical; details: for helix-1 (regular α-helix) / helix-2 (distorted α-helix) / random / β-strand-1 (regular β-strand) / β-strand-2 (distorted β-strand) / β-turn: peptide 50 μM, 25 °C
Procedure: The secondary structures of the linear peptide 9 and its stapled analogues 12, 17, and 24–26 were explored by circular dichroism (CD). CD spectroscopy studies were performed in water, and SDS or DPC micelles (20 mM) were used as mimics of the bacterial or mammalian membranes, respectively.[60]
The secondary structure content was predicted based on the CD spectra from 190 to 260 nm using the online server for protein secondary structure analyses, DichroWeb.[61] […] The hydrocarbon-bridged peptide 25 was slightly helical and structured in water, with weak ellipticity at 220 nm. Peptide 25 contains ∼13% regular helix and ∼10% distorted helix, according to the DichroWeb prediction.
All spectra were measured in the 260–190 nm spectral range, 1 nm bandwidth, 4 accumulations, and 100 nm/min scanning speed.[60] Each peptide was dissolved in water to prepare a 1 mM peptide stock solution. The CD spectra were performed in water, in SDS (20 mM) and in DPC (20 mM) using a peptide concentration of 50 μM. The secondary structure content of the peptides was predicted using the online server for protein secondary structure analyses DichroWeb.[61] Input and output units and the wavelength step were θ (mdeg) and 1.0 nm, respectively. The algorithm used was CONTIN-LL,[83] and reference database was set-7. When we have NRMSD > 0.100, we used the CDSSTR method.[83]

[8] = CD in DPC micelles (20 mM), DichroWeb
[9] = CD in SDS micelles (20 mM), DichroWeb

Compound: FVQWFSKFLGRIL [compound 7, Temporin L]
- Kd (FtsZ protein): 17.4 ± 0.8 nM

Compound: CC[C@H](C)[C@H](NC(=O)[C@H](CCCNC(=N)N)NC(=O)CNC(=O)[C@@H](CC(C)C)NC(=O)[C@H](Cc1ccccc1)NC(=O)[C@H](CCCCN)NC(=O)[C@H](CO)NC(=O)[C@H](Cc1ccccc1)NC(=O)[C@H](Cc1c[nH]c2ccccc12)NC(=O)[C@@H]1CCCN1C(=O)[C@@H](NC(=O)[C@@H](N)Cc1ccccc1)C(C)C)C(=O)N[C@@H](CC(C)C)C(N)=O [compound 9, [Pro^3,DLeu^9]TL, reference compound] (H-FVPWFSKF[dL]GRIL-NH2)
- MIC P. aeruginosa ATCC 27853 (P. aeruginosa ATCC 27853): 50 µM (≈ 80.5 µg/mL)
- MIC S. aureus ATCC 25923 (S. aureus ATCC 25923): 6.25 µM (≈ 10.1 µg/mL)
- helicity (circular dichroism): 3%
- metabolised at 0.75 h, 0.2 mM (in vitro): ~40%
- MIC E. coli ATCC 25922 (E. coli ATCC 25922): 12.5 µM (≈ 20.1 µg/mL)
- MIC B. megaterium Bm11 (B. megaterium Bm11): 1.56 µM (≈ 2.51 µg/mL)
- MIC S. epidermidis ATCC 12228 [1]: 6.25 µM (≈ 10.1 µg/mL)
- time to complete degradation in human serum [2]: ≤ 6 h
- Biofilm Eradication Concentration 90 (BEC90) S. aureus ATCC 25923 [3]: 25 µM
- Biofilm Eradication Concentration 90 (BEC90) A. baumannii ATCC 19606 [4]: > 100 µM
- MIC S. aureus ATCC 43300 (MRSA) [5]: 25 µM (≈ 40.2 µg/mL)
- MIC A. baumannii ATCC 19606 (A. baumannii ATCC 19606): 6.25 µM (≈ 10.1 µg/mL)

Compound: CC[C@H](C)[C@H](NC(=O)[C@H](CCCNC(=N)N)NC(=O)[C@@H]1CCCCNC(=O)CC[C@H](NC(=O)[C@H](Cc2ccccc2)NC(=O)[C@H](Cc2c[nH]c3ccccc23)NC(=O)[C@@H]2CCCN2C(=O)[C@@H](NC(=O)[C@@H](N)Cc2ccccc2)C(C)C)C(=O)N[C@@H](CCCCN)C(=O)N[C@@H](Cc2ccccc2)C(=O)N[C@H](CC(C)C)C(=O)N1)C(=O)N[C@@H](CC(C)C)C(N)=O [compound 24] (H-FVPWFEKF[dL]KRIL-NH2; lactam 6-10)
- MIC P. aeruginosa ATCC 27853 (P. aeruginosa ATCC 27853): >100 µM
- HaCaT cell viability ([6]; 2 h treatment, 25 μM, mean of three independent experiments): 60–70%
- HaCaT cell viability ([6]; 2 h treatment, 50 μM, mean of three independent experiments): less than 40%
- HaCaT cell viability ([6]; 24 h treatment (sentence continues from 50 μM)): less than 20%
- MIC S. aureus ATCC 25923 (S. aureus ATCC 25923): 3.12 µM (≈ 5.32 µg/mL)
- helicity (circular dichroism): 7%
- helix-1 (regular α-helix) [7, 8]: 69%
- helix-2 (distorted α-helix) [7, 8]: 23%
- random [7, 8]: 0%
- β-strand-1 (regular β-strand) [7, 8]: 0%
- β-strand-2 (distorted β-strand) [7, 8]: 3%
- β-turn [7, 8]: 4%
- helix percentage (total) in SDS solution ([7]; CD in SDS micelles (20 mM), DichroWeb, regular plus distorted helix): about 80%
- helix-1 (regular α-helix) [7, 9]: 59%
- helix-2 (distorted α-helix) [7, 9]: 18%
- random [7, 9]: 0%
- β-strand-1 (regular β-strand) [7, 9]: 11%
- β-strand-2 (distorted β-strand) [7, 9]: 5%
- β-turn [7, 9]: 7%
- helix-2 (distorted α-helix) ([7]; CD in water, DichroWeb): 6%
- random ([7]; CD in water, DichroWeb): 50%
- β-strand-1 (regular β-strand) ([7]; CD in water, DichroWeb): 16%
- β-strand-2 (distorted β-strand) ([7]; CD in water, DichroWeb): 9%
- β-turn ([7]; CD in water, DichroWeb): 17%
- helix-1 (regular α-helix) ([7]; CD in water, DichroWeb (CONTIN-LL, set-7; CDSSTR if NRMSD > 0.100)): 1%
- MIC E. coli ATCC 25922 (E. coli ATCC 25922): 25 µM (≈ 42.6 µg/mL)
- MIC B. megaterium Bm11 (B. megaterium Bm11): 1.56 µM (≈ 2.66 µg/mL)
- MIC S. epidermidis ATCC 12228 [1]: 1.56 µM (≈ 2.66 µg/mL)
- MIC A. baumannii ATCC 19606 (A. baumannii ATCC 19606): 3.12 µM (≈ 5.32 µg/mL)
